Data reported in patent publication US11759462B2, “Spirocyclic compounds as tryptophan hydroxylase inhibitors” (priority 2013, dated 2023).

Biological target: T1, Recombinant human TPH1 (MBP tagged) (Homo sapiens, UniProt P17752)
T1 construct: cloning full length human TPH1 cDNA in to a bacterial pMAL-c5E expression vector; made in house; host or cells: E. coli BL21 (DE3)
T1 sequence (P17752 1-444): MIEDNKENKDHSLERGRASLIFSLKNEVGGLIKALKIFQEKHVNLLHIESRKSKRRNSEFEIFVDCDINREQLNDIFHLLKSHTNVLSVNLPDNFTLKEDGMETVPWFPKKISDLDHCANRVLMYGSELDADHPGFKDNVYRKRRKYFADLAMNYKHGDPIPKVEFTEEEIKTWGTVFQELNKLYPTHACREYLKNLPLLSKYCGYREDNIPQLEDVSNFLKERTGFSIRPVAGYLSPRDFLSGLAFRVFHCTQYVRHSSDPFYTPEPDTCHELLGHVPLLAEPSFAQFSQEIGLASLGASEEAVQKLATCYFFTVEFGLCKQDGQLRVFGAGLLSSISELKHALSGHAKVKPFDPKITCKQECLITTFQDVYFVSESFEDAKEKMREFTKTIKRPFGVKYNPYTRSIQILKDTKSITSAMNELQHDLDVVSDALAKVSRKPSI
Test: TPH1 in vitro inhibition assay (kinetic fluorescence)
Format: biochemical
Conditions: read-out: TPH1 Range (TPH1 inhibition IC50)
How it was run: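 Final mix: 15 nM MBP-TPH1, 30 μM Trp, 36 μM 6-methyltetrahydropterin, 25 μM ferrous ammonium sulfate, 50 mM MES pH 7.1, 1% DMSO, room temperature.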

Molecule | IC50
Cc1ccn(-c2cc(-c3cc(C(F)(F)F)cc(C(F)(F)F)c3)ccc2[C@@H](Oc2cc(N3CCC4(CC3)CN[C@H](C(=O)O)C4)nc(N)n2)C(F)(F)F)n1 [Example 1bf, (S)-8-(2-amino-6-((R)-2,2,2-trifluoro-1-(3-(3-methyl-1H-pyrazol-1-yl)-3′,5′-bis(trifluoromethyl)-[1,1′-biphenyl]-4-yl)ethoxy)pyrimidin-4-yl)-2,8-diazaspiro[4.5]decane-3-carboxylic acid] | 50 to 300 nM
CC(=O)NCc1ccc(-c2ccc([C@@H](Oc3cc(N4CCC5(CC4)CN[C@H](C(=O)O)C5)nc(N)n3)C(F)(F)F)c(-n3ccc(C)n3)c2)cc1 [Example 1x, (S)-8-(6-((R)-1-(4′-(acetamidomethyl)-3-(3-methyl-1H-pyrazol-1-yl)-[1,1′-biphenyl]-4-yl)-2,2,2-trifluoroethoxy)-2-aminopyrimidin-4-yl)-2,8-diazaspiro[4.5]decane-3-carboxylic acid] | < 50 nM
Cc1ccn(-c2cc(-c3ccc(S(N)(=O)=O)cc3)ccc2[C@@H](Oc2cc(N3CCC4(CC3)CN[C@H](C(=O)O)C4)nc(N)n2)C(F)(F)F)n1 [Example 1cf, (S)-8-(2-amino-6-((R)-2,2,2-trifluoro-1-(3-(3-methyl-1H-pyrazol-1-yl)-4′-sulfamoyl-[1,1′-biphenyl]-4-yl)ethoxy)pyrimidin-4-yl)-2,8-diazaspiro[4.5]decane-3-carboxylic acid] | 50 to 300 nM
Nc1nc(O[C@H](c2ccc(-c3ccc4c(c3)OC(=O)CC4)cc2)C(F)(F)F)cc(N2CCC3(CC2)CN[C@H](C(=O)O)C3)n1 [Example 55db, (S)-8-(2-amino-6-((R)-2,2,2-trifluoro-1-(4-(2-oxochroman-7-yl)phenyl)ethoxy)pyrimidin-4-yl)-2,8-diazaspiro[4.5]decane-3-carboxylic acid] | 300 to 3000 nM
CC(C)Oc1cccc(-c2cc(Cl)ccc2[C@@H](Oc2cc(N3CCC4(CC3)CN[C@H](C(=O)O)C4)nc(N)n2)C(F)(F)F)c1 [Example 34ag, (S)-8-(2-amino-6-((R)-1-(5-chloro-3′-isopropoxy-[1,1′-biphenyl]-2-yl)-2,2,2-trifluoroethoxy)pyrimidin-4-yl)-2,8-diazaspiro[4.5]decane-3-carboxylic acid] | < 50 nM
Cc1ccn(-c2cc(-c3ccc(C(=O)N(C)C)cc3)ccc2[C@@H](Oc2cc(N3CCC4(CC3)CN[C@H](C(=O)O)C4)nc(C)n2)C(F)(F)F)n1 [Example 29j, (S)-8-(6-((R)-1-(4′-(dimethylcarbamoyl)-3-(3-methyl-1H-pyrazol-1-yl)-[1,1′-biphenyl]-4-yl)-2,2,2-trifluoroethoxy)-2-methylpyrimidin-4-yl)-2,8-diazaspiro[4.5]decane-3-carboxylic acid] | < 50 nM
Nc1nc(O[C@H](c2ccc(-c3ccc(Cl)c(Cl)c3)cc2)C(F)(F)F)cc(N2CCC3(CC2)CN[C@H](C(=O)O)C3)n1 [Example 55cl, (S)-8-(2-amino-6-((R)-1-(3′,4′-dichloro-[1,1′-biphenyl]-4-yl)-2,2,2-trifluoroethoxy)pyrimidin-4-yl)-2,8-diazaspiro[4.5]decane-3-carboxylic acid] | 50 to 300 nM
Cc1ccn(-c2cc(-c3ccc(S(C)(=O)=O)cc3)ccc2[C@@H](Oc2cc(N3CCC4(CC3)CN[C@H](C(=O)O)C4)nc(C)n2)C(F)(F)F)n1 [Example 29b, (S)-8-(2-methyl-6-((R)-2,2,2-trifluoro-1-(3-(3-methyl-1H-pyrazol-1-yl)-4′-(methylsulfonyl)-[1,1′-biphenyl]-4-yl)ethoxy)pyrimidin-4-yl)-2,8-diazaspiro[4.5]decane-3-carboxylic acid] | < 50 nM
Cc1ccn(-c2ccc(-c3cccc(C(=O)O)c3)cc2[C@@H](Oc2cc(N3CCC4(CC3)CN[C@H](C(=O)O)C4)nc(N)n2)C(F)(F)F)n1 [Example 19f, (S)-8-(2-amino-6-((R)-1-(3′-carboxy-4-(3-methyl-1H-pyrazol-1-yl)-[1,1′-biphenyl]-3-yl)-2,2,2-trifluoroethoxy)pyrimidin-4-yl)-2,8-diazaspiro[4.5] decane-3-carboxylic acid] | < 50 nM
Cc1ccn(-c2cc(-c3cccc(C(C)C)c3)ccc2[C@@H](Oc2cc(N3CCC4(CC3)CN[C@H](C(=O)O)C4)nc(N)n2)C(F)(F)F)n1 [Example 1bb, (S)-8-(2-amino-6-((R)-2,2,2-trifluoro-1-(3′-isopropyl-3-(3-methyl-1H-pyrazol-1-yl)-[1,1′-biphenyl]-4-yl)ethoxy)pyrimidin-4-yl)-2,8-diazaspiro[4.5]decane-3-carboxylic acid] | < 50 nM
Nc1nc(O[C@H](c2ccc(-c3ccc(F)c(F)c3)cc2)C(F)(F)F)cc(N2CCC3(CC2)CN[C@H](C(=O)O)C3)n1 [Example 55cr, (S)-8-(2-amino-6-((R)-1-(3′,4′-difluoro-[1,1′-biphenyl]-4-yl)-2,2,2-trifluoroethoxy)pyrimidin-4-yl)-2,8-diazaspiro[4.5]decane-3-carboxylic acid] | 300 to 3000 nM
Cc1ccn(-c2cc(-c3ccc(C)c(F)c3)ccc2[C@@H](Oc2cc(N3CCC4(CC3)CN[C@H](C(=O)O)C4)nc(N)n2)C(F)(F)F)n1 [Example 1aq, (S)-8-(2-amino-6-((R)-2,2,2-trifluoro-1-(3′-fluoro-4′-methyl-3-(3-methyl-1H-pyrazol-1-yl)-[1,1′-biphenyl]-4-yl)ethoxy)pyrimidin-4-yl)-2,8-diazaspiro[4.5]decane-3-carboxylic acid] | 50 to 300 nM
Nc1nc(O[C@H](c2ccc(Cl)cc2-c2cccc([N+](=O)[O-])c2)C(F)(F)F)cc(N2CCC3(CC2)CNC(C(=O)O)C3)n1 (stereo partly drawn) [Example 34e, 8-(2-amino-6-((R)-1-(5-chloro-3′-nitro-[1,1′-biphenyl]-2-yl)-2,2,2-trifluoroethoxy)pyrimidin-4-yl)-2,8-diazaspiro[4.5]decane-3-carboxylic acid] | 50 to 300 nM
COc1ncc(-c2ccc([C@@H](Oc3cc(N4CCC5(CC4)CN[C@H](C(=O)O)C5)nc(C)n3)C(F)(F)F)c(-n3ccc(C)n3)c2)cn1 [Example 29g, (S)-8-(2-methyl-6-((R)-2,2,2-trifluoro-1-(4-(2-methoxypyrimidin-5-yl)-2-(3-methyl-1H-pyrazol-1-yl)phenyl)ethoxy)pyrimidin-4-yl)-2,8-diazaspiro[4.5]decane-3-carboxylic acid] | < 50 nM
Nc1nc(O[C@H](c2ccc(-c3ccc4nccnc4c3)cc2)C(F)(F)F)cc(N2CCC3(CC2)CN[C@H](C(=O)O)C3)n1 [Example 55bi, (S)-8-(2-amino-6-((R)-2,2,2-trifluoro-1-(4-(quinoxalin-6-yl)phenyl)ethoxy)pyrimidin-4-yl)-2,8-diazaspiro[4.5]decane-3-carboxylic acid] | < 50 nM
Cc1cc(-c2cc(Cl)ccc2[C@@H](Oc2cc(N3CCC4(CC3)CN[C@H](C(=O)O)C4)nc(N)n2)C(F)(F)F)ccc1OC(F)(F)F [Example 34bb, (S)-8-(2-amino-6-((R)-1-(5-chloro-3′-methyl-4′-(trifluoromethoxy)-[1,1′-biphenyl]-2-yl)-2,2,2-trifluoroethoxy)pyrimidin-4-yl)-2,8-diazaspiro[4.5]decane-3-carboxylic acid] | 50 to 300 nM
Cc1ccn(-c2cc(-c3ccc(C)c(C)c3)ccc2[C@@H](Oc2cc(N3CCC4(CC3)CN[C@H](C(=O)O)C4)nc(C)n2)C(F)(F)F)n1 [Example 29d, (S)-8-(6-((R)-1-(3′,4′-dimethyl-3-(3-methyl-1H-pyrazol-1-yl)-[1,1′-biphenyl]-4-yl)-2,2,2-trifluoroethoxy)-2-methylpyrimidin-4-yl)-2,8-diazaspiro[4.5]decane-3-carboxylic acid] | < 50 nM
CCOc1ccc(-c2ccc([C@@H](Oc3cc(N4CCC5(CC4)CN[C@H](C(=O)O)C5)nc(N)n3)C(F)(F)F)c(-n3ccc(C)n3)c2)cn1 [Example 1cs, (S)-8-(2-amino-6-((R)-1-(4-(6-ethoxypyridin-3-yl)-2-(3-methyl-1H-pyrazol-1-yl)phenyl)-2,2,2-trifluoroethoxy)pyrimidin-4-yl)-2,8-diazaspiro[4.5]decane-3-carboxylic acid] | < 50 nM
Cc1ccn(-c2cc(Cl)ccc2[C@@H](Oc2ccnc(N3CCC4(CC3)CN[C@H](C(=O)O)C4)c2)C(F)(F)F)n1 [Example 45, (S)-8-(4-((R)-1-(4-chloro-2-(3-methyl-H-pyrazol-1-yl)phenyl)-2,2,2-trifluoroethoxy)pyridin-2-yl)-2,8-diazaspiro[4.5]decane-3-carboxylic acid] | 50 to 300 nM
COC(=O)c1cccc(-c2ccc([C@@H](Oc3cc(N4CCC5(CC4)CN[C@H](C(=O)O)C5)nc(C)n3)C(F)(F)F)c(-n3ccc(C)n3)c2)c1 [Example 29u, (S)-8-(2-methyl-6-((R)-2,2,2-trifluoro-1-(3′-(methoxycarbonyl)-3-(3-methyl-1H-pyrazol-1-yl)-[1,1′-biphenyl]-4-yl)ethoxy)pyrimidin-4-yl)-2,8-diazaspiro[4.5]decane-3-carboxylic acid] | 50 to 300 nM
(S)-8-(2-amino-6-((R)-1-(5-chloro-3′-isopropyl-[1,1′- biphenyl]-2-yl)-2,2,2-trifluoroethoxy)pyrimidin-4- yl)-2,8-diazaspiro[4.5]decane-3-carboxylic acid [Example 34ce] | 50 to 300 nM
Nc1nc(O[C@H](c2ccc(-c3ccc4cnoc4c3)cc2)C(F)(F)F)cc(N2CCC3(CC2)CN[C@H](C(=O)O)C3)n1 [Example 55g, (S)-8-(2-amino-6-((R)-1-(4-(benzo[d]isoxazol-6-yl)phenyl)-2,2,2-trifluoroethoxy)pyrimidin-4-yl)-2,8-diazaspiro[4.5]decane-3-carboxylic acid] | 300 to 3000 nM
